Values of other authors, collected in US20210220430A1, “USE OF NOD2 AGONIST FOR THE TREATMENT, PROPHYLAXIS AND/OR DELAY OF THE ONSET OF MULTIPLE SCLEROSIS AND ALZHEIMER?S DISEASE” (UNIVERSITE LAVAL, priority 2018, published 2021).

Biological target: NOD2 (Homo sapiens, UniProt Q9HC29)
Conditions: compared with classical N-acetyl MDP

Chain of NOD2 (Q9HC29 whole entry, species assumed): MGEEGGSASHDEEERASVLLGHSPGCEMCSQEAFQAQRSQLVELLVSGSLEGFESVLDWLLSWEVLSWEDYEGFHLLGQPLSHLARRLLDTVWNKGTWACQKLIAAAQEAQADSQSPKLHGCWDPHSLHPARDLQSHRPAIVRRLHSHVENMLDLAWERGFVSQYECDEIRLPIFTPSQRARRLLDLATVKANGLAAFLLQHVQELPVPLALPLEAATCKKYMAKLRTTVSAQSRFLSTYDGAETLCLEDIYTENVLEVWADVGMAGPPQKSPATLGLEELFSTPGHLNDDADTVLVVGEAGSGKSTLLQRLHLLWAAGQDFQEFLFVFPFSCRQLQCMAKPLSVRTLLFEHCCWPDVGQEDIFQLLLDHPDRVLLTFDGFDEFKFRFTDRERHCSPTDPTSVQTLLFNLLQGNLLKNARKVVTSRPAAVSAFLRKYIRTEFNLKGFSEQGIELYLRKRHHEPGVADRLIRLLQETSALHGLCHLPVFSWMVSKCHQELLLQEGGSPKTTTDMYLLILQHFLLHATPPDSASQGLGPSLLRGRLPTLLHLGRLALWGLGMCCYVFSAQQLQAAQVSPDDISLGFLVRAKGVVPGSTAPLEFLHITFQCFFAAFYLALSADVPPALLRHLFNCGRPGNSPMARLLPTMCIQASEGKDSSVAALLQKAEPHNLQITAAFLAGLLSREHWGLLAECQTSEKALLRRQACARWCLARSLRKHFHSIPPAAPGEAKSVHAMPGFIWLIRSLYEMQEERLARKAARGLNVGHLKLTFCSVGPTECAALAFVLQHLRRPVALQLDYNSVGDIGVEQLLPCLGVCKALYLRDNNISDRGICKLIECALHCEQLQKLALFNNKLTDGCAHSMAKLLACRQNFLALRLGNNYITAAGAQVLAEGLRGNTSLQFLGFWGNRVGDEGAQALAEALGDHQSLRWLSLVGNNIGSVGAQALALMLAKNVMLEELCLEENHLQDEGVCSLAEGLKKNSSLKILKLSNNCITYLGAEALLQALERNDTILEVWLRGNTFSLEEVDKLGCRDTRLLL

NOD2 agonist potency at stimulating inflammatory genes: more potent
SMILES: C[C@@H](NC(=O)[C@@H](C)OC1C(NC(=O)CO)[C@@H](O)OC(CO)[C@H]1O)C(=O)NC(CCC(=O)O)C(N)=O (stereo partly shown) [N-glycolyl MDP]
